15 molecules from PMC8900464 (Journal of medicinal chemistry, 2022) can be followed below.

One experiment relates to total AKT (T-AKT). Kind of experiment: Immunoblotting of total AKT in BT474 cells. It counts as cell-based. To be noted: 24 h, western blot; for AKT (T-AKT) degradation: BT474 cells, 1, 5 and 10 μM.
In experiment [1] the test system is P-AKT (S473), P-PRAS40 (T246), P-S6 (S240/244). Kind of experiment: Immunoblotting of P-AKT and downstream signaling in BT474 cells. To be noted: 24 h. The class given is cell-based.
[2] abbreviates: BT474 cells, 1, 5 and 10 μM, P-PRAS40 and P-S6, western blot.

Turning to `Cc1ncsc1-c1ccc(CNC(=O)[C@@H]2C[C@@H](O)CN2C(=O)[C@@H](NC(=O)CCC(=O)N2CCN(CC[C@H](NC(=O)C3(N)CCN(c4ncnc5[nH]ccc45)CC3)c3ccc(Cl)cc3)CC2)C(C)(C)C)cc1` [Compound 12, 4-Amino-N-((S)-1-(4-chlorophenyl)-3-(4-(4-(((S)-1-((2S,4R)-4-hydroxy-2-((4-(4-methylthiazol-5-yl)benzyl)carbamoyl)pyrrolidin-1-yl)-3,3-dimethyl-1-oxobutan-2-yl)amino)-4-oxobutanoyl)-piperazin-1-yl)propyl)-1-(7H-pyrrolo[2,3-d]pyrimidin-4-yl)-piperidine-4-carboxamide], in the experiment on total AKT (T-AKT), the “AKT (T-AKT) degradation” value is “inactive at reducing the T-AKT protein level”.

`Cc1ncsc1-c1ccc(CNC(=O)[C@@H]2C[C@@H](O)CN2C(=O)[C@@H](NC(=O)COCC(=O)N2CCN(CC[C@H](NC(=O)C3(N)CCN(c4ncnc5[nH]ccc45)CC3)c3ccc(Cl)cc3)CC2)C(C)(C)C)cc1` [Compound 3, 4-Amino-N-((S)-1-(4-chlorophenyl)-3-(4-(2-(2-(((S)-1-((2S,4R)-4-hydroxy-2-((4-(4-methylthiazol-5-yl)benzyl)carbamoyl)pyrrolidin-1-yl)-3,3-dimethyl-1-oxobutan-2-yl)amino)-2-oxoethoxy)acetyl)-piperazin-1-yl)propyl)-1-(7H-pyrrolo[2,3-d]pyrimidin-4-yl)-piperidine-4-carboxamide]: the downstream signaling inhibition entry in experiment [1] (setting [2]) is recorded as “most effective inhibition of the downstream signaling”. Besides, the “AKT (T-AKT) degradation” value in the experiment on total AKT (T-AKT) is “most significant T-AKT degradation”.

`NC1(C(=O)N[C@@H](CCN2CCN(C(=O)CCOCCNc3cccc4c3C(=O)N(C3CCC(=O)NC3=O)C4=O)CC2)c2ccc(Cl)cc2)CCN(c2ncnc3[nH]ccc23)CC1` (stereo partly drawn) [Compound 31, 4-Amino-N-((1S)-1-(4-chlorophenyl)-3-(4-(3-(2-((2-(2,6-dioxopiperidin-3-yl)-1,3-dioxoisoindolin-4-yl)amino)ethoxy)propanoyl)-piperazin-1-yl)propyl)-1-(7H-pyrrolo[2,3-d]pyrimidin-4-yl)-piperidine-4-carboxamide]: the AKT degradation entry in the experiment on total AKT (T-AKT) (BT474 cells, 10 μM) is listed as “only moderate AKT degradation”.

`NC1(C(=O)N[C@@H](CCN2CCN(C(=O)CCCNc3cccc4c3C(=O)N(C3CCC(=O)NC3=O)C4=O)CC2)c2ccc(Cl)cc2)CCN(c2ncnc3[nH]ccc23)CC1` (stereo partly drawn) [Compound 26, 4-Amino-N-((1S)-1-(4-chlorophenyl)-3-(4-(4-((2-(2,6-dioxopiperidin-3-yl)-1,3-dioxoisoindolin-4-yl)amino)butanoyl)piperazin-1-yl)-propyl)-1-(7H-pyrrolo[2,3-d]pyrimidin-4-yl)piperidine-4-carboxamide]: the downstream signaling inhibition result in experiment [1] (setting [2]) is on record as “moderate effectiveness”. Also, the “AKT (T-AKT) degradation” value with total AKT (T-AKT) is “moderate effectiveness”.

For `NC1(C(=O)N[C@@H](CCN2CCN(C(=O)CCCCCCCNc3cccc4c3C(=O)N(C3CCC(=O)NC3=O)C4=O)CC2)c2ccc(Cl)cc2)CCN(c2ncnc3[nH]ccc23)CC1` (stereo partly drawn) [Compound 30, 4-Amino-N-((1S)-1-(4-chlorophenyl)-3-(4-(8-((2-(2,6-dioxopiperidin-3-yl)-1,3-dioxoisoindolin-4-yl)amino)octanoyl)piperazin-1-yl)-propyl)-1-(7H-pyrrolo[2,3-d]pyrimidin-4-yl)piperidine-4-carboxamide], in the experiment with total AKT (T-AKT), the “AKT (T-AKT) degradation” value is on record as “negligible AKT degradation”.

Turning to `NC1(C(=O)N[C@@H](CCN2CCN(C(=O)CNc3cccc4c3C(=O)N(C3CCC(=O)NC3=O)C4=O)CC2)c2ccc(Cl)cc2)CCN(c2ncnc3[nH]ccc23)CC1` (stereo partly drawn) [Compound 24, 4-Amino-N-((1S)-1-(4-chlorophenyl)-3-(4-((2-(2,6-dioxopiperidin-3-yl)-1,3-dioxoisoindolin-4-yl)glycyl)piperazin-1-yl)propyl)-1-(7H-pyrrolo[2,3-d]pyrimidin-4-yl)piperidine-4-carboxamide], the “AKT (T-AKT) degradation” value with total AKT (T-AKT) is given as “negligible AKT degradation”.

Consider `Cc1ncsc1-c1ccc(CNC(=O)[C@@H]2C[C@@H](O)CN2C(=O)[C@@H](NC(=O)CCCC(=O)N2CCN(CC[C@H](NC(=O)C3(N)CCN(c4ncnc5[nH]ccc45)CC3)c3ccc(Cl)cc3)CC2)C(C)(C)C)cc1` [Compound 13, 4-Amino-N-((S)-1-(4-chlorophenyl)-3-(4-(5-(((S)-1-((2S,4R)-4-hydroxy-2-((4-(4-methylthiazol-5-yl)benzyl)carbamoyl)pyrrolidin-1-yl)-3,3-dimethyl-1-oxobutan-2-yl)amino)-5-oxopentanoyl)-piperazin-1-yl)propyl)-1-(7H-pyrrolo[2,3-d]pyrimidin-4-yl)-piperidine-4-carboxamide], for which the “AKT (T-AKT) degradation” value with total AKT (T-AKT) is “inactive at reducing the T-AKT protein level”.

As to `NC1(C(=O)N[C@@H](CCN2CCN(C(=O)CCOCCOCCOCCOCCOCCNc3cccc4c3CN(C3CCC(=O)NC3=O)C4=O)CC2)c2ccc(Cl)cc2)CCN(c2ncnc3[nH]ccc23)CC1` (stereo partly drawn) [Compound 39, 4-Amino-N-((1S)-1-(4-chlorophenyl)-3-(4-(1-((2-(2,6-dioxopiperidin-3-yl)-1-oxoisoindolin-4-yl)amino)-3,6,9,12,15-pentaoxaoctadecan-18-oyl)piperazin-1-yl)propyl)-1-(7H-pyrrolo[2,3-d]pyrimidin-4-yl)piperidine-4-carboxamide], the “AKT (T-AKT) degradation” value in the experiment on total AKT (T-AKT) is listed as “significantly decreased effectiveness in AKT degradation”.

For `Cc1ncsc1-c1ccc(CNC(=O)[C@@H]2C[C@@H](O)CN2C(=O)[C@@H](NC(=O)CCOCCC(=O)N2CCN(CC[C@H](NC(=O)C3(N)CCN(c4ncnc5[nH]ccc45)CC3)c3ccc(Cl)cc3)CC2)C(C)(C)C)cc1` [Compound 4, 4-Amino-N-((S)-1-(4-chlorophenyl)-3-(4-(3-(3-(((S)-1-((2S,4R)-4-hydroxy-2-((4-(4-methylthiazol-5-yl)benzyl)carbamoyl)pyrrolidin-1-yl)-3,3-dimethyl-1-oxobutan-2-yl)amino)-3-oxopropoxy)-propanoyl)piperazin-1-yl)propyl)-1-(7H-pyrrolo[2,3-d]pyrimidin-4-yl)piperidine-4-carboxamide], the “AKT (T-AKT) degradation” value with total AKT (T-AKT) is recorded as “decreased the AKT degradation effectiveness”.

Turning to `NC1(C(=O)N[C@@H](CCN2CCN(C(=O)CCNc3cccc4c3C(=O)N(C3CCC(=O)NC3=O)C4=O)CC2)c2ccc(Cl)cc2)CCN(c2ncnc3[nH]ccc23)CC1` (stereo partly drawn) [Compound 25, 4-Amino-N-((1S)-1-(4-chlorophenyl)-3-(4-(3-((2-(2,6-dioxopiperidin-3-yl)-1,3-dioxoisoindolin-4-yl)amino)propanoyl)piperazin-1-yl)propyl)-1-(7H-pyrrolo[2,3-d]pyrimidin-4-yl)piperidine-4-carboxamide], in the experiment on total AKT (T-AKT), the “AKT (T-AKT) degradation” value is recorded as “negligible AKT degradation”.

As to `Cc1ncsc1-c1ccc(CNC(=O)[C@@H]2C[C@@H](O)CN2C(=O)[C@@H](NC(=O)CCCCCCCCCC(=O)N2CCN(CC[C@H](NC(=O)C3(N)CCN(c4ncnc5[nH]ccc45)CC3)c3ccc(Cl)cc3)CC2)C(C)(C)C)cc1` [Compound 19, 4-Amino-N-((S)-1-(4-chlorophenyl)-3-(4-(11-(((S)-1-((2S,4R)-4-hydroxy-2-((4-(4-methylthiazol-5-yl)benzyl)carbamoyl)pyrrolidin-1-yl)-3,3-dimethyl-1-oxobutan-2-yl)amino)-11-oxoundecanoyl)-piperazin-1-yl)propyl)-1-(7H-pyrrolo[2,3-d]pyrimidin-4-yl)-piperidine-4-carboxamide], the downstream signaling inhibition entry in experiment [1] (setting [2]) was “most profound AKT degradation and downstream signaling inhibition”. Moreover, the “AKT (T-AKT) degradation” value in the experiment with total AKT (T-AKT) is “most profound AKT degradation”.

For the molecule `NC1(C(=O)N[C@@H](CCN2CCN(C(=O)CCCCCNc3cccc4c3C(=O)N(C3CCC(=O)NC3=O)C4=O)CC2)c2ccc(Cl)cc2)CCN(c2ncnc3[nH]ccc23)CC1` (stereo partly drawn) [Compound 28, 4-Amino-N-((1S)-1-(4-chlorophenyl)-3-(4-(6-((2-(2,6-dioxopiperidin-3-yl)-1,3-dioxoisoindolin-4-yl)amino)hexanoyl)piperazin-1-yl)-propyl)-1-(7H-pyrrolo[2,3-d]pyrimidin-4-yl)piperidine-4-carboxamide], the downstream signaling inhibition result in experiment [1] (setting [2]) is listed as “moderate effectiveness”. Also, the “AKT (T-AKT) degradation” value in the experiment on total AKT (T-AKT) is given as “moderate effectiveness”.

For `Cc1ncsc1-c1ccc(CNC(=O)[C@@H]2C[C@@H](O)CN2C(=O)[C@@H](NC(=O)CCCCC(=O)N2CCN(CC[C@H](NC(=O)C3(N)CCN(c4ncnc5[nH]ccc45)CC3)c3ccc(Cl)cc3)CC2)C(C)(C)C)cc1` [Compound 14, 4-Amino-N-((S)-1-(4-chlorophenyl)-3-(4-(6-(((S)-1-((2S,4R)-4-hydroxy-2-((4-(4-methylthiazol-5-yl)benzyl)carbamoyl)pyrrolidin-1-yl)-3,3-dimethyl-1-oxobutan-2-yl)amino)-6-oxohexanoyl)-piperazin-1-yl)propyl)-1-(7H-pyrrolo[2,3-d]pyrimidin-4-yl)-piperidine-4-carboxamide], the downstream signaling inhibition result in experiment [1] (BT474 cells, 5 μM, western blot) is “significant downstream signaling inhibition”. The AKT degradation result with total AKT (T-AKT) (BT474 cells, 5 μM) is “improved AKT degradation”.

Take `NC1(C(=O)N[C@@H](CCN2CCN(C(=O)CCCCCCNc3cccc4c3C(=O)N(C3CCC(=O)NC3=O)C4=O)CC2)c2ccc(Cl)cc2)CCN(c2ncnc3[nH]ccc23)CC1` (stereo partly drawn) [Compound 29, 4-Amino-N-((1S)-1-(4-chlorophenyl)-3-(4-(7-((2-(2,6-dioxopiperidin-3-yl)-1,3-dioxoisoindolin-4-yl)amino)heptanoyl)piperazin-1-yl)propyl)-1-(7H-pyrrolo[2,3-d]pyrimidin-4-yl)piperidine-4-carboxamide]: the “AKT (T-AKT) degradation” value in the experiment with total AKT (T-AKT) is listed as “negligible AKT degradation”.

`Cc1ncsc1-c1ccc(CNC(=O)[C@@H]2C[C@@H](O)CN2C(=O)[C@@H](N)C(C)(C)C)cc1` [VHL-1, (2S,4R)-1-[(S)-2-amino-3,3-dimethylbutanoyl]-4-hydroxy-N-[4-(4-methylthiazol-5-yl)benzyl]pyrrolidine-2-carboxamide, reference compound]: in experiment [1] (BT474 cells, 1 μM, western blot), the “downstream signaling (PRAS40 and S6 phosphorylation)” value is reported as “no effect”. Further, the T-AKT protein level entry in the experiment with total AKT (T-AKT) (BT474 cells, 1 μM) is “no effect”.
